The record followed here is patent publication US20260354378A1, “OIL-IN-WATER EMULSION FORMULATION, A PROCESS FOR ITS PREPARATION AND ITS USE AS HERBICIDE” (priority 2022, published 2026).

Structures are written as SMILES. Structures can show the parent of a compound that is named as a salt.

A short description of data set [1]: Solubility in the organic solvent Solvesso 200ND. Format: physicochemical. Conditions: room temperature. The method, then:
(§1) As a preliminary step, solubility tests were performed to determine the ability of Aminopyralid potassium salt used as herbicide B to dissolve in the organic solvent Solvesso 200ND and the oil phase of the emulsion disclosed in US 2011/0092367 A1, page 11, paragraphs [0141] and [0142].
The solubility was measured in a test tube at room temperature. 0.10 g of Aminopyralid potassium salt was placed in the test tube. First, 1 g of the organic solvent (Solvesso 200 ND) was added. The amount of the organic solvent (Solvesso 200 ND) was then increased in several steps to 10 g. […] The solubility of Aminopyralid Potassium salt in Solvesso 200ND was visually determined to be less than 1%.

Data set [2] can be described thus: Solubility in the oil phase of the emulsion of US 2011/0092367 A1. Particulars: Solvesso 200 ND, Wettol EM 1, Wettol EM 31 per Table 9. Format: physicochemical. As to the method:
as §1
The organic solvent (Solvesso 200 ND), calcium dodecylbenzene sulfonate (Wettol EM 1) and castor oil ethoxylate (Wettol EM 31) were mixed in the amounts given in Table 9. After mixing, it was not soluble in said mixture. After further adding dimethenamid-P in the amount given in Table 9, solubility of the Aminopyralid potassium salt could not be increased. In summary, Aminopyralid potassium salt (herbicide B) was not soluble in the oil phase of the emulsion as disclosed in US 2011/0092367 A1 (see page 11, paragraphs [0141] and [0142]).

Take `Nc1cc(Cl)nc(C(=O)O)c1Cl` [Aminopyralid potassium salt, 4-amino-3,6-dichloro-2-pyridinecarboxylic acid]: in data set [1] (0.10 g in 1 g to 10 g solvent, magnetic stirrer), the “Solubility in Solvesso 200 ND (visual observation)” value is listed as “poor solubility”. In addition, in data set [1] (visually determined), the “Solubility in Solvesso 200ND” value is “less than 1%”. Moreover, the “Solubility in the oil phase of the emulsion of US 2011/0092367 A1” value in data set [2] is “not soluble”.
